Experimental findings from patent publication US20240293551A1, “USE OF ST-TYPE LIPID COMPOUNDS IN PREPARATION OF NUCLEIC ACID DELIVERY REAGENT AND RELATED PRODUCT” (INSTITUTE OF BASIC MEDICAL SCIENCES CHINESE ACADEMY OF …, priority 2021, published 2024) are described below.

This assay deals with PGY-sRNA-26. In words: In vivo delivery study of lipid-nucleic acid mixture (oral gavage, RT-qPCR of PGY-sRNA-26 in tissues). The note with it: C57BL/6 mice, gavage, 100 μg lipid: 10 nmol PGY-sRNA-26, 12 hours; for delivery efficacy over each tissue and blood tested (broad-spectrum delivery): all tissues and blood tested; for oral delivery of single-stranded sRNA nucleic acids into mouse intestinal tissue: intestine. Also noted: species or system mouse. The method, then: 10 nmol of small RNA (as shown in Table 2) was dissolved in 400 μl of DEPC-treated water in a glass tube, 10 μl of the corresponding lipid stock solution was added such that the lipid mass in the system was 100 μg. The mixture was mixed thoroughly, heated in a 90° C. water bath for 15 minutes, and then cooled naturally to obtain the lipid nucleic acid mixture of lipid and small RNA.
C57BL/6 male mice, approximately 6 weeks old, weighing 20-24 g, were obtained from Beijing Vital River Laboratory Animal Technology Co., Ltd. The mice were housed in the SPF-grade animal facility at the Animal Center of the Institute of Basic Medical Sciences, Chinese Academy of Medical Sciences. The mice were fasted for 12 hours before gavage administration.
The resultant lipid nucleic acid mixture was orally administered to each mouse at a dose of 100 μg lipid: 10 nmol single-stranded 3′-methylated small RNA PGY-sRNA-26.
• 1) Blank group (n=4): mice were administered with 500 μl saline by gavage, this group served as a blank control; • 2) Free uptake group (n=4): mice were directly administered with small RNA PGY-sRNA-26 solution (10 nmol/mouse, 500 μl) by gavage, this group served as a negative control; • 3) Lipid-treated group (n=4): mice were administered with 500 μl lipid nucleic acid mixture prepared in step 2 by gavage.
After 12 hours of gavage administration, 500 μl blood from the eyeball of each mouse was sampled, added to 1.5 ml Trizol Reagent LS (purchased from Invitrogen), thoroughly mixed for lysis. 3 ml of Trizol Reagent LSwas added to tissue samples and homogenized for complete lysis, wherein the sampled tissues include heart, liver, spleen, lung, kidney, stomach, intestine, brain, blood, femur. RNA was extracted from 1 ml of the blood or the tissue lysate following the steps below: • Centrifuge at 4° C., 12,000 rpm for 5 min, discard the precipitate, transfer Trizol to a new centrifuge tube; • Add chloroform at 200 μL chloroform/mL Trizol, shake well, stand at room temperature for 5 min; • Centrifuge at 4° C., 12,000 rpm for 15 min; • Take the upper aqueous phase to another centrifuge tube, add isopropanol at 0.4 mL isopropanol/mL Trizol, mix well, and stand at low temperature for 10-20 min; • Centrifuge at 4° C., 12,000 rpm for 15 min, discard the supernatant, RNA precipitated at the bottom of the tube; • Add 1 mL of 75% ethanol, gently shake the centrifuge tube, suspend the precipitate; • Centrifuge at 4° C., 12,000 rpm for 15 min, discard the supernatant, add 1 mL of 75% ethanol, gently shake the centrifuge tube, suspend the precipitate; • Centrifuge at 4° C., 12,000 rpm for 15 min, discard the supernatant, air-dry at room temperature, dissolve RNA samples in 50 μL RNase-free H2O, measure OD value to quantify RNA concentration. 3.3 Reverse Transcription of sRNA to cDNA:
The reverse transcription system is as follows: Template RNA (200 ng/μL) 10 μL, 10×RT Buffer 2.0 μL, 25×dNTP Mix (100 mM) 0.8 μL, U6 RT stem-loop primer (10 μM) 2.0 μL, PGY-sRNA-26 RT stem-loop primer (10 μM) 2.0 μL, MultiScribe™ Reverse Transcriptase (50 U/μL) 1.0 μL, RNAse Inhibitor (40 U/μL) 1.0 μL, nuclease-free H2O 1.2 μL. After transient centrifugation, the reverse transcription system was placed in a PCR machine with the following reaction conditions: (1) 25° C., 10 min; (2) 37° C., 120 min; (3) 85° C., 5 min; (4) 4° C., stop reaction. After the reaction, add 20 μL RNAse-free ddH2O, adjust the final volume to 40 μL. The stem-loop primers used in this reverse transcription process were synthesized by Beijing Tianyi Huiyuan Biotechnology Co., Ltd. (U6 was used as a standard reference gene to calculate its relative expression, because U6 RT primer was used as a reference gene in relative quantification of RT-qPCR reactions for small RNA): […]

Turning to `CC(C)[C@H](C)[C@@H](O)[C@H](O)[C@@H](C)[C@H]1CC[C@H]2[C@@H]3COC(=O)[C@H]4C[C@H](O)[C@H](O)C[C@]4(C)[C@H]3CC[C@]12C` [Lipid 508], the “delivery efficacy over each tissue and blood tested (broad-spectrum delivery)” value is on record as “exhibited the best delivery efficacy”; the “oral delivery of single-stranded sRNA nucleic acids into mouse blood” value is listed as “can effectively orally deliver”; the “oral delivery of single-stranded sRNA nucleic acids into mouse brain tissue” value is recorded as “can effectively orally deliver”; the “oral delivery of single-stranded sRNA nucleic acids into mouse heart tissue” value is recorded as “can effectively orally deliver”. Besides, the “oral delivery of single-stranded sRNA nucleic acids into mouse intestinal tissue” value is on record as “can effectively orally deliver”, the “oral delivery of single-stranded sRNA nucleic acids into mouse kidney tissue” value was “can effectively orally deliver”, the “oral delivery of single-stranded sRNA nucleic acids into mouse liver tissue” value is given as “can effectively orally deliver” and the “oral delivery of single-stranded sRNA nucleic acids into mouse lung tissue” value is given as “can effectively orally deliver”. Further, the “oral delivery of single-stranded sRNA nucleic acids into mouse spleen tissue” value is “can effectively orally deliver” and the “oral delivery of single-stranded sRNA nucleic acids into mouse stomach tissue” value is “can effectively orally deliver”.
For the compound `C[C@]1(O)CC[C@H]2[C@@H]3CCC4=CC(=O)CC[C@]4(C)[C@@]3(F)[C@@H](O)C[C@@]21C` [Lipid 532], the “delivery efficacy over each tissue and blood tested (broad-spectrum delivery)” value is recorded as “exhibited the best delivery efficacy”; the “oral delivery of single-stranded sRNA nucleic acids into mouse blood” value is “can effectively orally deliver”; the “oral delivery of single-stranded sRNA nucleic acids into mouse femur” value was “can effectively orally deliver”; the “oral delivery of single-stranded sRNA nucleic acids into mouse heart tissue” value is “can effectively orally deliver”. Moreover, the “oral delivery of single-stranded sRNA nucleic acids into mouse intestinal tissue” value is “can effectively orally deliver”, the “oral delivery of single-stranded sRNA nucleic acids into mouse kidney tissue” value is “can effectively orally deliver”, the “oral delivery of single-stranded sRNA nucleic acids into mouse liver tissue” value is “can effectively orally deliver” and the “oral delivery of single-stranded sRNA nucleic acids into mouse lung tissue” value is listed as “can effectively orally deliver”. Moreover, the “oral delivery of single-stranded sRNA nucleic acids into mouse spleen tissue” value is “can effectively orally deliver” and the “oral delivery of single-stranded sRNA nucleic acids into mouse stomach tissue” value is listed as “can effectively orally deliver”.
Take `C[C@]12CCC(=O)C=C1CC[C@H]1[C@@H]3CC[C@](O)(C(=O)CO)[C@@]3(C)C[C@H](O)[C@@]12F` [Lipid 534]: the “delivery efficacy over each tissue and blood tested (broad-spectrum delivery)” value is “exhibited the best delivery efficacy”; the “oral delivery of single-stranded sRNA nucleic acids into mouse blood” value is reported as “can effectively orally deliver”; the “oral delivery of single-stranded sRNA nucleic acids into mouse brain tissue” value is “can effectively orally deliver”; the “oral delivery of single-stranded sRNA nucleic acids into mouse femur” value was “can effectively orally deliver”. The “oral delivery of single-stranded sRNA nucleic acids into mouse heart tissue” value is “can effectively orally deliver”, the “oral delivery of single-stranded sRNA nucleic acids into mouse intestinal tissue” value is given as “can effectively orally deliver”, the “oral delivery of single-stranded sRNA nucleic acids into mouse kidney tissue” value is reported as “can effectively orally deliver” and the “oral delivery of single-stranded sRNA nucleic acids into mouse liver tissue” value is reported as “can effectively orally deliver”. The “oral delivery of single-stranded sRNA nucleic acids into mouse lung tissue” value is reported as “can effectively orally deliver”, the “oral delivery of single-stranded sRNA nucleic acids into mouse spleen tissue” value is “can effectively orally deliver” and the “oral delivery of single-stranded sRNA nucleic acids into mouse stomach tissue” value was “can effectively orally deliver”.
In the case of `CC(C)CC[C@@H](O)[C@](C)(O)[C@H]1CC[C@@]2(O)C3=CC(=O)[C@@H]4C[C@@H](O)[C@@H](O)C[C@]4(C)[C@H]3CC[C@]12C` [Lipid 538], the “delivery efficacy over each tissue and blood tested (broad-spectrum delivery)” value is on record as “exhibited the best delivery efficacy”; the “oral delivery of single-stranded sRNA nucleic acids into mouse blood” value is listed as “can effectively orally deliver”; the “oral delivery of single-stranded sRNA nucleic acids into mouse brain tissue” value was “can effectively orally deliver”; the “oral delivery of single-stranded sRNA nucleic acids into mouse femur” value is “can effectively orally deliver”. For the same compound, the “oral delivery of single-stranded sRNA nucleic acids into mouse heart tissue” value is listed as “can effectively orally deliver”, the “oral delivery of single-stranded sRNA nucleic acids into mouse intestinal tissue” value was “can effectively orally deliver”, the “oral delivery of single-stranded sRNA nucleic acids into mouse kidney tissue” value was “can effectively orally deliver” and the “oral delivery of single-stranded sRNA nucleic acids into mouse liver tissue” value is on record as “can effectively orally deliver”. The “oral delivery of single-stranded sRNA nucleic acids into mouse lung tissue” value is listed as “can effectively orally deliver”, the “oral delivery of single-stranded sRNA nucleic acids into mouse spleen tissue” value is reported as “can effectively orally deliver” and the “oral delivery of single-stranded sRNA nucleic acids into mouse stomach tissue” value was “can effectively orally deliver”.
Regarding `C[C@]12CCC(=O)C[C@@H]1CC[C@@H]1[C@@H]2CC[C@@]2(C)[C@H]1CC[C@]2(C)O` [Lipid 539], the “delivery efficacy over each tissue and blood tested (broad-spectrum delivery)” value was “exhibited the best delivery efficacy”; the “oral delivery of single-stranded sRNA nucleic acids into mouse blood” value was “can effectively orally deliver”; the “oral delivery of single-stranded sRNA nucleic acids into mouse brain tissue” value is listed as “can effectively orally deliver”; the “oral delivery of single-stranded sRNA nucleic acids into mouse femur” value is recorded as “can effectively orally deliver”. The “oral delivery of single-stranded sRNA nucleic acids into mouse heart tissue” value was “can effectively orally deliver”, the “oral delivery of single-stranded sRNA nucleic acids into mouse intestinal tissue” value is listed as “can effectively orally deliver”, the “oral delivery of single-stranded sRNA nucleic acids into mouse kidney tissue” value is “can effectively orally deliver” and the “oral delivery of single-stranded sRNA nucleic acids into mouse liver tissue” value is recorded as “can effectively orally deliver”. Further, the “oral delivery of single-stranded sRNA nucleic acids into mouse lung tissue” value was “can effectively orally deliver”, the “oral delivery of single-stranded sRNA nucleic acids into mouse spleen tissue” value is given as “can effectively orally deliver” and the “oral delivery of single-stranded sRNA nucleic acids into mouse stomach tissue” value is given as “can effectively orally deliver”.
Consider `C=C1/C(=C\C=C2/CCC[C@]3(C)[C@@H]([C@H](C)OCCC(C)(C)O)CC[C@@H]23)C[C@@H](O)C[C@@H]1O` [Lipid 540], for which the “delivery efficacy over each tissue and blood tested (broad-spectrum delivery)” value was “exhibited the best delivery efficacy”; the “oral delivery of single-stranded sRNA nucleic acids into mouse blood” value was “can effectively orally deliver”; the “oral delivery of single-stranded sRNA nucleic acids into mouse brain tissue” value is “can effectively orally deliver”; the “oral delivery of single-stranded sRNA nucleic acids into mouse femur” value was “can effectively orally deliver”. The “oral delivery of single-stranded sRNA nucleic acids into mouse heart tissue” value is given as “can effectively orally deliver”, the “oral delivery of single-stranded sRNA nucleic acids into mouse intestinal tissue” value is given as “can effectively orally deliver”, the “oral delivery of single-stranded sRNA nucleic acids into mouse kidney tissue” value is listed as “can effectively orally deliver” and the “oral delivery of single-stranded sRNA nucleic acids into mouse liver tissue” value is “can effectively orally deliver”. Moreover, the “oral delivery of single-stranded sRNA nucleic acids into mouse lung tissue” value is recorded as “can effectively orally deliver”, the “oral delivery of single-stranded sRNA nucleic acids into mouse spleen tissue” value is given as “can effectively orally deliver” and the “oral delivery of single-stranded sRNA nucleic acids into mouse stomach tissue” value was “can effectively orally deliver”.
